We go through eight molecules from patent publication US20250223268A1, “4-Methylsulfonylbenzamide Compound, Preparation Method, Herbicidal Composition And Use” (Jiangsu Flag Chemical Industry Co., Ltd., priority 2022, published 2025).

What all share (type): in vivo
For data set [1], the system named is Echinochloa crusgalli. As to the kind of experiment: Greenhouse herbicidal activity assay, post-emergence. Conditions: Post-emergence test, rate 150 g a.i./hm^2, grade by fresh weight inhibition rate. In outline: (§1)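 Weeds were sown in nutrient soil in 7 cm pots and grown in a growth chamber to the 3-6 leaf stage, then foliar-sprayed, air-dried and returned to the chamber. Fresh weight inhibition was scored 14-21 days later in bands from A (≥80% to 100%) to E (<20%).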

The next data set deals with Cyperus iria. The description is as above. Conditions: Post-emergence test, rate 150 g a.i./hm^2, grade by fresh weight inhibition rate. The method, boiled down:
as §1

In another data set the test system is Digitaria sanguinalis. Described as above. Conditions: Post-emergence test, rate 150 g a.i./hm^2, grade by fresh weight inhibition rate. In outline:
as §1

Data set [2] deals with Leptochloa chinensis. The description is as above. Conditions: Post-emergence test, rate 150 g a.i./hm^2, grade by fresh weight inhibition rate. The method, boiled down: as §1
For the next data set, the system named is Eclipta prostrata. The data set is described as above. Conditions: Post-emergence test, rate 150 g a.i./hm^2, grade by fresh weight inhibition rate. The method, boiled down:
as §1

Data set [3] deals with Echinochloa crusgalli. In words: Greenhouse herbicidal activity and crop safety comparison (Test Example 2). An excerpt:
(§2) Pre-emergence: Seeds of gramineous weeds (Echinochloa crusgalli, Echinochloa crusgalli var. zelayensis, Echinochloa phyllopogon, Eleusine indica, Digitaria sanguinalis, Leptochloa chinensis, Setaria viridis, Alopecurus japonicus Steud, Beckmannia syzigachne, Polypogon fugax, Alopecurus aequalis, Lolium multiflorum, Poa annua, Aegilops tataschii, Avena fatua, Alopecurus myosuroides, Bromus japonicus), broadleaf weeds (Eclipta prostrata, Amaranthus retroflexus, Rorippa indica, Myosoton aquaticum, Veronica didyma, Galium aparine, Solanum nigrum, Xanthium sibiricum, Conyza canadensis, Sesbania cannabina, Sagittaria trifolia), and Cyperus iria (Cyperus iria, Scirpus juncoides, Cyperus difformis, etc.) were sown in plastic pots (7 cm diameter) with nutrient soil and bottom holes. Crop seeds (including Oryza sativa subsp. indica, Oryza sativa subsp. japonica, Oryza sativa L. var. Glutinosa matsum, Triticum aestivum, Zea mays, Sorghum bicolor, Setaria italica, Glycine max, Gossypium hirsutum, Brassica napus, Arachis hypogaea) were sown in plastic pots (10 cm diameter) with nutrient soil and bottom holes. After sowing, the seeds were lightly covered with soil, and the soil was moistened via bottom water absorption. The pots were placed in a constant-temperature light-controlled growth chamber for 24 hours before soil spraying. Spraying was performed using a 3WP-2000 walking-type spray tower (produced by the Nanjing Agricultural Mechanization Institute, Ministry of Agriculture) with a spindle speed of 96 mm/r, spray height of 300 mm, effective spray width of 350 mm, spray area of 0.35 m^2, and nozzle flow rate of 390 mL/min.
(§3) After treatment, the test materials were air-dried naturally in the laboratory and then transferred to the growth chamber. Results were assessed 14-30 days later.
(§4) Post-emergence: Seeds of gramineous weeds (Echinochloa crusgalli, Echinochloa crusgalli var. zelayensis, Echinochloa phyllopogon, Eleusine indica, Digitaria sanguinalis, Leptochloa chinensis, Setaria viridis, Alopecurus japonicus Steud, Beckmannia syzigachne, Polypogon fugax, Alopecurus aequalis, Lolium multiflorum, Poa annua, Aegilops tataschii, Avena fatua, Alopecurus myosuroides, Bromus japonicus), broadleaf weeds (Eclipta prostrata, Amaranthus retroflexus, Rorippa indica, Myosoton aquaticum, Veronica didyma, Galium aparine, Solanum nigrum, Xanthium sibiricum, Conyza canadensis, Sesbania cannabina, Sagittaria trifolia), and Cyperus iria (Cyperus iria, Scirpus juncoides, Cyperus difformis, etc.) were sown in plastic pots (7 cm diameter) with nutrient soil and bottom holes. Crop seeds (including Oryza sativa subsp. indica, Oryza sativa subsp. japonica, Oryza sativa L. var. Glutinosa matsum, Triticum aestivum, Zea mays, Sorghum bicolor, Setaria italica, Glycine max, Gossypium hirsutum, Brassica napus, Arachis hypogaea) were sown in plastic pots (10 cm diameter) with nutrient soil and bottom holes. After sowing, the pots were placed in the growth chamber until the plants reached the 3-6 leaf stage for foliar spraying. Post-treatment, the materials were air-dried naturally and returned to the growth chamber. Results were assessed 14-21 days later.
(§5) • A: Fresh weight inhibition rate≥80% to 100%; • B: Fresh weight inhibition rate[…] to <80%; • C: Fresh weight inhibition rate≥40% to <60%; • D: Fresh weight inhibition rate≥20% to <40%; • E: Fresh weight inhibition rate<20%; • NT: Not tested.
(§6) Using the above method, the herbicidal activity and crop safety of the present compounds were compared with structurally similar known compounds (CK1, CK2, CK3, CK4: compounds 4-756, 4-759, 1-557, 1-563 from WO2012028579A1; CK5: compound 290-1 from WO2013087577A1; CK6: compound 1-129 from WO2011035874A1).

The subject of data set [4] is Oryza sativa subsp. japonica. The data set is described as above.
Text: as §2, §3, §4, §5, §6

Data set [5] relates to Oryza sativa subsp. indica. The data set is described as above.
Text: as §2, §3, §4, §5, §6

The subject of data set [6] is Leptochloa chinensis. Described as above. Conditions: Rate 150 g/ha.
Text: as §2, §3, §4, §5, §6

Usually inhibition stands for the drop in the measured response relative to a control, in per cent.

For the molecule `CCCS(=O)(=O)c1c(S(C)(=O)=O)ccc(C(=O)Nc2nnnn2C)c1Cl` [Compound 1-5, 2-chloro-N-(1-methyl-1H-tetrazol-5-yl)-4-(methylsulfonyl)-3-(propylsulfonyl)benzamide], the pest or weed control at 150 g/ha in the data set on Echinochloa crusgalli [1] (Echinochloa crus-galli, read-out: Control efficacy grade, Echinochloa crusgalli) is 80 to 100%; in the data set with Cyperus iria (Cyperus iria, read-out: Control efficacy grade, Cyperus iria) it was 80 to 100%; in the data set on Digitaria sanguinalis (Digitaria sanguinalis, read-out: Control efficacy grade, Digitaria sanguinalis) it was 80 to 100%; with Leptochloa chinensis [2] (Dinebra chinensis, read-out: Control efficacy grade, Leptochloa chinensis), 80 to 100%; in the data set on Eclipta prostrata (Eclipta prostrata, read-out: Control efficacy grade, Eclipta prostrata), 80 to 100%. Besides, the inhibition at 150 g/ha with Echinochloa crusgalli [3] (Echinochloa crus-galli, Rate 150 g/ha, read-out: Echinochloa crusgalli, control efficacy grading (fresh weight inhibition rate)) lay within 80 to 100%. In addition, in data set [4] (Rate 150 g/ha), the “Oryza sativa subsp. japonica, grading of fresh weight inhibition rate (crop safety)” value was “E (Fresh weight inhibition rate<20%)”. Moreover, in data set [5] (Rate 150 g/ha), the “Oryza sativa subsp. indica, grading of fresh weight inhibition rate (crop safety)” value is “E (Fresh weight inhibition rate<20%)”.

As to `CC(C)S(=O)(=O)c1c(S(C)(=O)=O)ccc(C(=O)Nc2nnnn2C)c1Cl` [Compound 1-10], the “Control efficacy grade, Echinochloa crusgalli” value with Echinochloa crusgalli [1] is recorded as “A (Fresh weight inhibition rate≥80% to 100%)”. Further, the “Control efficacy grade, Cyperus iria” value with Cyperus iria is recorded as “A (Fresh weight inhibition rate≥80% to 100%)”. Besides, in the data set with Digitaria sanguinalis, the “Control efficacy grade, Digitaria sanguinalis” value is listed as “A (Fresh weight inhibition rate≥80% to 100%)”. In addition, in the data set on Leptochloa chinensis [2], the “Control efficacy grade, Leptochloa chinensis” value was “A (Fresh weight inhibition rate≥80% to 100%)”. Further, the “Control efficacy grade, Eclipta prostrata” value with Eclipta prostrata is given as “A (Fresh weight inhibition rate≥80% to 100%)”. Moreover, the “Echinochloa crusgalli, control efficacy grading (fresh weight inhibition rate)” value in the data set with Echinochloa crusgalli [3] (Rate 150 g/ha) is on record as “A (Fresh weight inhibition rate≥80% to 100%)”. Moreover, the “Oryza sativa subsp. japonica, grading of fresh weight inhibition rate (crop safety)” value in [4] (Rate 150 g/ha) is listed as “E (Fresh weight inhibition rate<20%)”. Further, the “Oryza sativa subsp. indica, grading of fresh weight inhibition rate (crop safety)” value in data set [5] (Rate 150 g/ha) is reported as “E (Fresh weight inhibition rate<20%)”.

As to `Cn1nnnc1NC(=O)c1ccc(S(C)(=O)=O)c(S(=O)(=O)CC2CC2)c1Cl` [Compound 1-31], the “Control efficacy grade, Echinochloa crusgalli” value in the data set on Echinochloa crusgalli [1] is “A (Fresh weight inhibition rate≥80% to 100%)”. The “Control efficacy grade, Cyperus iria” value with Cyperus iria is “A (Fresh weight inhibition rate≥80% to 100%)”. Also, in the data set on Digitaria sanguinalis, the “Control efficacy grade, Digitaria sanguinalis” value was “A (Fresh weight inhibition rate≥80% to 100%)”. Besides, the “Control efficacy grade, Leptochloa chinensis” value with Leptochloa chinensis [2] is “A (Fresh weight inhibition rate≥80% to 100%)”. For the same molecule, the “Control efficacy grade, Eclipta prostrata” value with Eclipta prostrata is “A (Fresh weight inhibition rate≥80% to 100%)”. In addition, the “Echinochloa crusgalli, control efficacy grading (fresh weight inhibition rate)” value with Echinochloa crusgalli [3] (Rate 150 g/ha) is reported as “A (Fresh weight inhibition rate≥80% to 100%)”. In data set [4] (Rate 150 g/ha), the “Oryza sativa subsp. japonica, grading of fresh weight inhibition rate (crop safety)” value is listed as “E (Fresh weight inhibition rate<20%)”. Further, the “Oryza sativa subsp. indica, grading of fresh weight inhibition rate (crop safety)” value in data set [5] (Rate 150 g/ha) is “E (Fresh weight inhibition rate<20%)”.

With `Cn1nnnc1NC(=O)c1ccc(S(C)(=O)=O)c(S(=O)(=O)C2CC2)c1Cl` [Compound 1-36], in the data set with Echinochloa crusgalli [1], the “Control efficacy grade, Echinochloa crusgalli” value is “A (Fresh weight inhibition rate≥80% to 100%)”. The “Control efficacy grade, Cyperus iria” value in the data set with Cyperus iria is reported as “A (Fresh weight inhibition rate≥80% to 100%)”. Moreover, the “Control efficacy grade, Digitaria sanguinalis” value in the data set with Digitaria sanguinalis is listed as “A (Fresh weight inhibition rate≥80% to 100%)”. Also, the “Control efficacy grade, Leptochloa chinensis” value with Leptochloa chinensis [2] is recorded as “A (Fresh weight inhibition rate≥80% to 100%)”. For the same molecule, the “Control efficacy grade, Eclipta prostrata” value in the data set on Eclipta prostrata was “A (Fresh weight inhibition rate≥80% to 100%)”. Besides, the “Echinochloa crusgalli, control efficacy grading (fresh weight inhibition rate)” value with Echinochloa crusgalli [3] (Rate 150 g/ha) is “A (Fresh weight inhibition rate≥80% to 100%)”. In [4] (Rate 150 g/ha), the “Oryza sativa subsp. japonica, grading of fresh weight inhibition rate (crop safety)” value is reported as “E (Fresh weight inhibition rate<20%)”. Moreover, the “Oryza sativa subsp. indica, grading of fresh weight inhibition rate (crop safety)” value in data set [5] (Rate 150 g/ha) was “E (Fresh weight inhibition rate<20%)”.

`C=CCS(=O)(=O)c1c(S(C)(=O)=O)ccc(C(=O)Nc2nnnn2C)c1Cl` [Compound 1-71]: the “Control efficacy grade, Echinochloa crusgalli” value in the data set on Echinochloa crusgalli [1] is “A (Fresh weight inhibition rate≥80% to 100%)”. Further, the “Control efficacy grade, Cyperus iria” value in the data set with Cyperus iria is “A (Fresh weight inhibition rate≥80% to 100%)”. The “Control efficacy grade, Digitaria sanguinalis” value in the data set on Digitaria sanguinalis is recorded as “A (Fresh weight inhibition rate≥80% to 100%)”. Further, the “Control efficacy grade, Leptochloa chinensis” value in the data set on Leptochloa chinensis [2] is on record as “A (Fresh weight inhibition rate≥80% to 100%)”. In the data set on Eclipta prostrata, the “Control efficacy grade, Eclipta prostrata” value is given as “A (Fresh weight inhibition rate≥80% to 100%)”. The “Echinochloa crusgalli, control efficacy grading (fresh weight inhibition rate)” value in the data set with Echinochloa crusgalli [3] (Rate 250 g/ha) is given as “A (Fresh weight inhibition rate≥80% to 100%)”. Also, in data set [4] (Rate 250 g/ha), the “Oryza sativa subsp. japonica, grading of fresh weight inhibition rate (crop safety)” value is “E (Fresh weight inhibition rate<20%)”. The “Oryza sativa subsp. indica, grading of fresh weight inhibition rate (crop safety)” value in data set [5] (Rate 250 g/ha) is “E (Fresh weight inhibition rate<20%)”.

`Cc1nnc(NC(=O)c2ccc(S(C)(=O)=O)c(S(=O)(=O)CCCl)c2Cl)o1` [Compound 3-216]: the “Control efficacy grade, Leptochloa chinensis” value in the data set on Leptochloa chinensis [2] is “A (Fresh weight inhibition rate≥80% to 100%)”. The “Oryza sativa subsp. japonica, grading of fresh weight inhibition rate (crop safety)” value in data set [4] (Rate 150 g/ha) is reported as “E (Fresh weight inhibition rate<20%)”. The “Leptochloa chinensis, control efficacy grading (fresh weight inhibition rate)” value in the data set with Leptochloa chinensis [6] is “A (Fresh weight inhibition rate≥80% to 100%)”. In data set [5] (Rate 150 g/ha), the “Oryza sativa subsp. indica, grading of fresh weight inhibition rate (crop safety)” value was “E (Fresh weight inhibition rate<20%)”.

Turning to `CC(C)c1nnc(NC(=O)c2ccc(S(C)(=O)=O)c(S(=O)(=O)C3CCCC3)c2Cl)o1` [Compound 3-549], the “Control efficacy grade, Cyperus iria” value in the data set on Cyperus iria is given as “A (Fresh weight inhibition rate≥80% to 100%)”. Also, in the data set with Leptochloa chinensis [2], the “Control efficacy grade, Leptochloa chinensis” value is recorded as “A (Fresh weight inhibition rate≥80% to 100%)”. Besides, the “Control efficacy grade, Eclipta prostrata” value with Eclipta prostrata is “A (Fresh weight inhibition rate≥80% to 100%)”. The “Oryza sativa subsp. japonica, grading of fresh weight inhibition rate (crop safety)” value in [4] (Rate 150 g/ha) is listed as “E (Fresh weight inhibition rate<20%)”. In addition, the “Leptochloa chinensis, control efficacy grading (fresh weight inhibition rate)” value with Leptochloa chinensis [6] is “A (Fresh weight inhibition rate≥80% to 100%)”. The “Oryza sativa subsp. indica, grading of fresh weight inhibition rate (crop safety)” value in [5] (Rate 150 g/ha) is listed as “E (Fresh weight inhibition rate<20%)”.

In the case of `CS(=O)(=O)c1ccc(C(=O)Nc2nnc(C3CC3)o2)c(Cl)c1S(=O)(=O)C1CCCC1` [Compound 3-665], in the data set on Cyperus iria, the “Control efficacy grade, Cyperus iria” value is given as “B (Fresh weight inhibition rate≥260% to <80%)”. Besides, the “Control efficacy grade, Leptochloa chinensis” value with Leptochloa chinensis [2] is reported as “A (Fresh weight inhibition rate≥80% to 100%)”. Moreover, the “Control efficacy grade, Eclipta prostrata” value in the data set on Eclipta prostrata was “A (Fresh weight inhibition rate≥80% to 100%)”. Besides, in [4] (Rate 150 g/ha), the “Oryza sativa subsp. japonica, grading of fresh weight inhibition rate (crop safety)” value was “E (Fresh weight inhibition rate<20%)”. Besides, the “Leptochloa chinensis, control efficacy grading (fresh weight inhibition rate)” value with Leptochloa chinensis [6] is given as “A (Fresh weight inhibition rate≥80% to 100%)”. Moreover, the “Oryza sativa subsp. indica, grading of fresh weight inhibition rate (crop safety)” value in data set [5] (Rate 150 g/ha) is listed as “E (Fresh weight inhibition rate<20%)”.
